# Reference: US6194422A, “Anthracycline derivatives” (Pharmacia & Upjohn SpA, priority 1997, dated 2001)
# Target: Aβ1-40 peptide monomer (Homo sapiens, UniProt P05067)
# Assay type: biochemical
# Conditions: 50 μM test compound, 20 μM Aβ1-40 monomer, 4 μM pre-formed sonicated Aβ1-40 fibrils, pH 7.4, two hours at 37° C., HPLC
# Description: The activity of the disclosed compounds is assessed according to the procedure reported below. An Aβ1-40 peptide monomer stock solution is prepared by dissolving the peptide in dimethylsulfoxide at a concentration of 33.33 mg/mL. The stock solution is further diluted 1 to 11.5 with dimethylsulfoxide. This solution is then diluted with 10 mM phosphate buffer pH 7.4 containing 150 mM sodium chloride to prepare the test solution. To an eppendorf tube containing 47 μL of Aβ1-40 peptide monomer solution are added 3 μL of a 830 μM water solution of the test compound containing 66.4 μM, based on the Aβ1 -40 monomer content, of pre-formed sonicated Aβ1-40 fibrils: the resulting solution is 20 μM in Aβ1-40 monomer, 50 μM in the test compound and contains 4 μM, based on the Aβ1-40 monomer content, of pre-formed sonicated Aβ1-40 fibrils. The aggregation is allowed to proceed for two hours at 37° C. The suspension is then centrifuged at 15000 rpm for 15 minutes at +4° C., the supernatant is collected and the Aβ1 -40 monomer is quantitated by HPLC. The activity is expressed as the percent of inhibition of the aggregation of a 20 μM Aβ1-40 monomer solution stimulated by 4 μM, based on the Aμ1-40 monomer content, pre-formed sonicated Aμ1-40 fibrils.
# Aβ1-40 peptide monomer, sequence (P05067 672-711 limits assumed): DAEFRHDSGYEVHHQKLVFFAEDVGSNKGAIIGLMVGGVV
row,Compound,% inhibition (of the aggregation of Aβ1-40 monomer)
1,"CCON=C1CC2NC1(C)Cc1c(O)c3c(c(O)c12)C(=O)c1c(OC)cccc1C3=O (single isomer, unassigned) [lac-I, Anthrazalone O-ethyloxime]",54.2%
2,"COc1ccc(CN2C3CC(=NO)C2(C)Cc2c(O)c4c(c(O)c23)C(=O)c2c(OC)cccc2C4=O)cc1OC (stereo not drawn) [Compound 1a, 8-N-(3,4-dimethoxybenzyl) anthrazalone oxime]",22.9%
3,"C=CCN1C2CC(=NOC)C1(C)Cc1c(O)c3c(c(O)c12)C(=O)c1c(OC)cccc1C3=O (stereo not drawn) [Compound 1c, 8-N-allylanthrazalone O-methyl-oxime]",36.0%
4,"CON=C1CC2c3c(O)c4c(c(O)c3CC1(C)N2Cc1ccc(OC)c(OC)c1)C(=O)c1cccc(OC)c1C4=O (stereo not drawn) [Compound 1e, 8-N-(3.4-dimethoxybenzyl)anthrazalone O-methyloxime]",26.2%
5,"CON=C1CC2c3c(O)c4c(c(O)c3CC1(C)N2Cc1ccncc1)C(=O)c1cccc(OC)c1C4=O (stereo not drawn) [Compound 1p, 8-N-(4-pyridylmethyl)anthrazalone O-methyloxime]",31.7%
6,"COc1cccc2c1C(=O)c1c(O)c3c(c(O)c1C2=O)CC1(C)C(=NOCc2ccccc2)CC3N1Cc1ccncc1 (stereo not drawn) [Compound 1q, 8-N-(4-pyridylmethyl)anthrazalone O-benzyloxime]",24.2%
